According to patent publication US20190374506A1, “COMPOSITIONS AND METHODS FOR TREATING CANCER” (BETH ISREAL DEACONESS MEDICAL CENTER, priority 2016, published 2019):

What was measured:
[1] = system: Wwp1^+/+ and Wwp1^−/− MEFs; experiment: Growth curves of Wwp1+/+ and Wwp1-/- MEFs treated with I3C; type: cell-based, mouse; conditions: 100 μM I3C
Description: FIG. 10C provides growth curves of Wwp1^+/+ and Wwp1^−/− MEFs treated with 100 μM I3C. Representative pictures of the cells at Day 3 are shown below. Whether targeting WWP1/NEDD4-1, thereby enhancing PTEN dimerization and function, could offer a unique opportunity to treat MYC-driven cancers was investigated. […] As there is no small pharmacological inhibitor currently available to suppress/inhibit WWP1 activity, Indole-3-Carbinol (I3C), a potential WWP1 inhibitor, which suppresses the WWP1 activity through binding to its HECT domain, was used. First, to assess the on-target effects of I3C towards WWP1, Wwp1^−/− MEFs were used. […] Additionally, two independent PTEN stably knocked-down cells were generated. […] At 8 hours post-transfection, cells were trypsinized, resuspended, and seeded in three separate 12-well plates at a final density of 20,000/well. Starting the following day (d0), one plate per day was washed once with PBS, fixed in 10% formalin solution for 10 minutes at room temperature, and kept in PBS at 4° C. On the last day, all of the wells were stained with crystal violet. After lysis with 10% acetic acid, optical density was read at 595 nm.

[2] = system: WWP1/NEDD4-1 E3 mediated PTEN K27-linked poly-ubiquitination; experiment: In vivo ubiquitination assay (Ni-NTA pull down, western blot) in DU145 cells; type: cell-based, human; conditions: 10 μM or 20 μM I3C for 4 Days
Description: DU145 cells expressing indicated plasmids were treated with 10 μM or 20 μM of I3C for 4 Days. The ubiquitinated PTEN was pulled down under denaturing conditions by Ni-NTA agarose and analysed by the western blot. Whether targeting WWP1/NEDD4-1, thereby enhancing PTEN dimerization and function, could offer a unique opportunity to treat MYC-driven cancers was investigated. […] As there is no small pharmacological inhibitor currently available to suppress/inhibit WWP1 activity, Indole-3-Carbinol (I3C), a potential WWP1 inhibitor, which suppresses the WWP1 activity through binding to its HECT domain, was used. First, to assess the on-target effects of I3C towards WWP1, Wwp1^−/− MEFs were used. […] Additionally, two independent PTEN stably knocked-down cells were generated. […] To analyse in vivo ubiquitination of PTEN, cells were transfected with various constructs, together with His-Ubiquitin and Myc-PTEN. Cells were lysed by buffer A (6 M guanidine-HCl, Na2HPO4/NaH2PO4 [pH 8.0], and 10 mM imidazole), and lysates were incubated with Ni-NTA agarose for 1.5 hours at 4° C. The beads were washed once with buffer A, twice with buffer ANTI (1 vol buffer A: 3 vol buffer TI [25 mM Tris-HCl, pH 6.8, and 20 mM imidazole]), and three times with buffer TI, and then analysed by western blot. In all experiments, an equal amount of His-Ubiquitin expression was verified by western blot analysis.

[3] = system: DU145 cells with PTEN depletion; experiment: Growth curves, MTT assay, DU145 cells with stable PTEN shRNA knockdown; type: cell-based, human; conditions: two independent PTEN shRNAs, various doses of I3C for 5 Days
From the text: FIG. 11D provides growth curves of DU145 cells, stably expressing vector control or two independent shRNAs, treated with various doses of I3C for 5 Days, and then assayed with colorimetric MTT assay (three experiments). Whether targeting WWP1/NEDD4-1, thereby enhancing PTEN dimerization and function, could offer a unique opportunity to treat MYC-driven cancers was investigated. […] As there is no small pharmacological inhibitor currently available to suppress/inhibit WWP1 activity, Indole-3-Carbinol (I3C), a potential WWP1 inhibitor, which suppresses the WWP1 activity through binding to its HECT domain, was used. First, to assess the on-target effects of I3C towards WWP1, Wwp1^−/− MEFs were used. […] Additionally, two independent PTEN stably knocked-down cells were generated.

[4] = system: DU145 cells stably expressing MYC or vector control; experiment: Growth curves, MTT assay, DU145 cells stably expressing MYC or vector control; type: cell-based, human
[5] = system: Hi-Myc prostate spheres; experiment: Prostate sphere forming ability of WT or Hi-Myc prostatic epithelial cells; type: cell-based, mouse; conditions: Hi-Myc spheres at P1 passage, 10 μM I3C for 3 Day (low dose)
[6] = system: AKT activation in prostate spheres; experiment: Western blot analysis of prostate spheres at P1 passage; type: cell-based, mouse; conditions: 20 μM I3C for 3 Days (low dose)
Description: FIG. 11G is a Western blot analysis of prostate spheres at P1 passage treated with 20 μM I3C for 3 Days.

[7] = biological target: NEDD4-1; conditions: previous study (Aronchik et al., 2014); read-out: calculated equilibrium dissociation constant (Kd) with NEDD4-1; cited from earlier work

## OCc1c[nH]c2ccccc12 [I3C, indole-3-carbinol]
[1]
  sensitivity of Wwp1−/− cells to I3C treatment compared to Wwp1+/+ cells: more resistant
[2]
  PTEN K27-linked poly-ubiquitination: robustly diminished
[3]
  sensitivity of cells with PTEN depletion compared to control cells: exhibited resistance
[4]; MYC-overexpressing DU145 cells, same low dose of I3C
  cell growth upon overexpression of MYC: became sensitized
[4]; vector control DU145 cells, low dose of I3C
  cell growth of control cells: little effect on the cell growth
[5]
  prostate sphere-forming ability: drastically suppressed
[6]; Hi-Myc prostate spheres
  AKT activation driven by MYC expression: abolished AKT activation
  apoptosis in Hi-Myc prostate spheres: concomitant apoptosis
[6]; WT prostate spheres
  AKT activation and apoptosis in WT prostate spheres: not in WT prostate spheres
[7]
  Kd: ~88.1 µM
